Patent US6737383B1, “Herbicidal oxadiazolidines” (priority 1999, dated 2004)

Experiments:
[1] = tested on: bedstraw; assay: Test B pre/postemergence bedstraw; format: in vivo, Galium aparine
In short: (§1)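 Herbicidal effect was estimated by eye on a ten-point control scale after plants spent twelve to sixteen days in a greenhouse following soil or foliar treatment. Foliar sprays targeted plants at one to four leaves; all doses were formulated in a non-phytotoxic solvent with surfactant.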

[2] = tested on: purple nutsedge; assay: Test B pre/postemergence purple nutsedge; format: in vivo, Cyperus rotundus; conditions: Postemergence; for Nutsedge plant response rating: 10 is complete control
In short: as §1

[3] = tested on: cocklebur; assay: Test B pre/postemergence cocklebur; format: in vivo, Xanthium strumarium
In short: as §1

[4] = tested on: pigweed; assay: Test B pre/postemergence pigweed; format: in vivo, Amaranthus retroflexus
In short: as §1

[5] = tested on: rape; assay: Test B pre/postemergence rape; format: in vivo, Brassica napus
In short: as §1

[6] = tested on: surinam grass; assay: Test B pre/postemergence surinam grass; format: in vivo, Brachiaria decumbens
In short: as §1

[7] = tested on: sugar beet; assay: Test B pre/postemergence sugar beet; format: in vivo, Beta vulgaris
In short: as §1

[8] = tested on: rice; assay: Test B flood test rice; format: in vivo, Oryza sativa
In short: (§2)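 Plants were grown to the 2-leaf stage before treatment with test chemical, then held in a greenhouse for twelve to sixteen days. Injury was visually rated against untreated controls on a 0–10 scale, where 0 is no effect and 10 is complete control.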

[9] = tested on: morningglory; assay: Test B pre/postemergence morningglory; format: in vivo, Ipomoea hederacea
In short: as §1

[10] = tested on: velvetleaf; assay: Test B pre/postemergence velvetleaf; format: in vivo, Abutilon theophrasti
In short: as §1

[11] = tested on: duck salad; assay: Test B flood test duck salad; format: in vivo, Heteranthera limosa
In short: as §2

[12] = tested on: bamyardgrass; assay: Test B flood test barnyardgrass; format: in vivo, Echinochloa crus-galli
In short: as §2

[13] = tested on: corn; assay: Test B pre/postemergence corn; format: in vivo, Zea mays
In short: as §1

[14] = tested on: giant foxtail; assay: Test B pre/postemergence giant foxtail; format: in vivo, Setaria faberii
In short: as §1

[15] = tested on: blackgrass; assay: Test B pre/postemergence blackgrass; format: in vivo, Alopecurus myosuroides
In short: as §1

[16] = Postemergence, Rate 62 g/ha, scale of 0 to 10, 0 is no effect, 10 is complete control
[17] = Postemergence, Rate 500 g/ha, scale of 0 to 10 where 0 is no effect and 10 is complete control
[18] = Preemergence, Rate 62 g/ha, scale 0 to 10 (0 no effect, 10 complete control)
[19] = Preemergence, Rate 125 g/ha, scale 0 to 10, 0 is no effect, 10 is complete control
[20] = Preemergence, Rate 500 g/ha, scale of 0 to 10 where 0 is no effect and 10 is complete control
[21] = Postemergence, Rate 125 g/ha, scale 0 to 10, 0 is no effect, 10 is complete control
[22] = Rate 250 g/ha, Postemergence, scale of 0 to 10 where 0 is no effect and 10 is complete control
[23] = Rate 62 g/ha, flood test species, Pre-emergence, visual evaluation after twelve to sixteen days
[24] = Rate 125 g/ha, under heading Pre-emergence, flood test species, visual evaluation after twelve to sixteen days
[25] = Rate 250 g/ha, Pre-emergence (flood test species), scale 0 to 10, 0 is no effect, 10 is complete control
[26] = Rate 500 g/ha, Pre-emergence section of Table B, 0 to 10 scale (0 no effect, 10 complete control)

CC(C)N(C(=O)n1oc(=O)n(CCC2OCCCO2)c1=O)c1ccccc1 [Compound 561]
0: Bedstraw plant response rating [1, 16] | Bedstraw plant response rating [1, 18] | Bedstraw plant response rating [1, 19] | Nutsedge plant response rating ([2]; Rate 62 g/ha, scale of 0 to 10, 0 is no effect) | Cocklebur plant response rating [3, 16] | Cocklebur plant response rating [3, 21] | Plant response rating, Cocklebur [3, 17] | Cocklebur plant response rating [3, 18] | Cocklebur plant response rating [3, 19] | Cocklebur plant response rating (0 to 10 scale) ([3]; Preemergence, Rate 250 g/ha) | Cocklebur plant response rating [3, 20] | Plant response rating, Cocklebur [3, 22] | Redroot pigweed plant response rating [4, 16] | Plant response rating, Redroot pigweed [4, 22] | B. signalgrass plant response rating [6, 16] | B. signalgrass plant response rating [6, 21] | Sugarbeets plant response rating [7, 16] | Sugarbeets plant response rating [7, 18] | Sugarbeets plant response rating [7, 19] | Plant response rating, Rice (0 to 10 scale, 0 is no effect, 10 is complete control) [8, 23] | Rice plant response rating (0 to 10 scale, 0 is no effect, 10 is complete control) [8, 24] | Rice plant response rating [8, 25] | Rice plant response rating [8, 26] | Morningglory plant response rating [9, 18] | Morningglory plant response rating [9, 19] | Velvetleaf plant response rating [10, 16] | Plant response rating, Velvetleaf [10, 17] | Velvetleaf plant response rating [10, 18] | Velvetleaf plant response rating [10, 19] | Velvetleaf plant response rating (0 to 10 scale) ([10]; Preemergence, Rate 250 g/ha) | Plant response rating, Velvetleaf [10, 22] | Plant response rating, Ducksalad (0 to 10 scale, 0 is no effect, 10 is complete control) [11, 23] | Ducksalad plant response rating (0 to 10 scale, 0 is no effect, 10 is complete control) [11, 24] | Ducksalad plant response rating [11, 25] | Ducksalad plant response rating [11, 26] | Plant response rating, Barnyardgrass (0 to 10 scale, 0 is no effect, 10 is complete control) [12, 23] | Barnyardgrass plant response rating (0 to 10 scale, 0 is no effect, 10 is complete control) [12, 24] | Barnyardgrass plant response rating [12, 25] | Barnyardgrass plant response rating [12, 26] | Corn plant response rating [13, 16] | Corn plant response rating [13, 21] | Corn plant response rating [13, 18] | Corn plant response rating [13, 19] | Plant response rating, Corn [13, 22] | Giant foxtail plant response rating [14, 18]
6: Plant response rating, B. signalgrass [6, 22] | Giant foxtail plant response rating [14, 19] | Giant foxtail plant response rating (0 to 10 scale) ([14]; Preemergence, Rate 250 g/ha) | Plant response rating, Blackgrass [15, 17] | Plant response rating, Blackgrass [15, 22]
1: Morningglory plant response rating [9, 16]
9: Redroot pigweed plant response rating (0 to 10 scale) ([4]; Preemergence, Rate 250 g/ha) | Redroot pigweed plant response rating [4, 20] | Rape plant response rating [5, 20] | B. signalgrass plant response rating [6, 20] | Plant response rating, Morningglory [9, 17] | Blackgrass plant response rating (0 to 10 scale) ([15]; Preemergence, Rate 250 g/ha) | Blackgrass plant response rating [15, 20]
3: Redroot pigweed plant response rating [4, 18] | Plant response rating, Corn [13, 17]
2: Bedstraw plant response rating (0 to 10 scale) ([1]; Preemergence, Rate 250 g/ha) | Nutsedge plant response rating ([2]; Rate 125 g/ha, scale 0 to 10, 0 is no effect) | Rape plant response rating [5, 18] | Rape plant response rating [5, 19] | Sugarbeets plant response rating (0 to 10 scale) ([7]; Preemergence, Rate 250 g/ha) | Morningglory plant response rating (0 to 10 scale) ([9]; Preemergence, Rate 250 g/ha) | Velvetleaf plant response rating [10, 20] | Corn plant response rating (0 to 10 scale) ([13]; Preemergence, Rate 250 g/ha) | Giant foxtail plant response rating [14, 16] | Blackgrass plant response rating [15, 16]
4: Plant response rating, Nutsedge ([2]; Rate 500 g/ha, scale of 0 to 10 where 0 is no effect and 10 is complete control) | Rape plant response rating [5, 16] | Rape plant response rating [5, 21] | Plant response rating, Rape [5, 17] | Plant response rating, Rape [5, 22] | B. signalgrass plant response rating [6, 18] | B. signalgrass plant response rating [6, 19] | Plant response rating, Sugarbeets [7, 17] | Morningglory plant response rating [9, 21] | Morningglory plant response rating [9, 20] | Giant foxtail plant response rating [14, 21]
8: Bedstraw plant response rating [1, 20] | Plant response rating, B. signalgrass [6, 17] | B. signalgrass plant response rating (0 to 10 scale, 0 is no effect, 10 is complete control) ([6]; Preemergence, Rate 250 g/ha) | Sugarbeets plant response rating [7, 20] | Plant response rating, Giant foxtail [14, 17]
5: Redroot pigweed plant response rating [4, 19] | Rape plant response rating (0 to 10 scale) ([5]; Preemergence, Rate 250 g/ha) | Plant response rating, Morningglory [9, 22] | Corn plant response rating [13, 20] | Blackgrass plant response rating [15, 21] | Blackgrass plant response rating [15, 18]
7: Plant response rating, Bedstraw [1, 17] | Plant response rating, Redroot pigweed [4, 17] | Giant foxtail plant response rating [14, 20] | Plant response rating, Giant foxtail [14, 22] | Blackgrass plant response rating [15, 19]
